Experiments:
[1] = tested on: S. aureus DSM2569; assay: MIC, standard microdilution assay, growing S. aureus; assay type: cell-based, Staphylococcus aureus; details: S. aureus; CA-MHB pH 7.4; read-out: MIC (μM) CA-MHB
Outline: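 MICs come from microdilution in CA-MHB/40 mM HEPES pH 7.4 for the UPEC, Pseudomonas and Staphylococcus strains, and in TSB for Shigella. UPEC also tested in LPM/30 mM MES pH 5.5.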

[2] = tested on: non-growing UPEC CFT073; assay: Dilution-regrowth assay (screen, hit validation, dose-response) on stationary-phase UPEC; assay type: cell-based, Escherichia coli
Outline: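 Regrowth (OD600 after 6 h, 37 °C) of diluted non-growing CFT073, following 24 h compound treatment of 24 h stationary cultures, defines activity relative to untreated control. Screen at 20 µM, validation at 20, 10, 5 µM (duplicates), dose–response in three biological replicates fitted by five-parameter logistic.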

[3] = tested on: non-growing UPEC CFT073; assay: Dose-dependent killing analysis (CFU spot-plating) of stationary-phase UPEC; assay type: cell-based, Escherichia coli; details: E. coli in LPM (pH 5.5)
Protocol: To differentiate between these scenarios, we used CFU counting by agar plating to assess the bactericidal effect on non-growing bacteria. […] Conversely, if no significant reduction in CFU is observed, the regrowth delay is due to PAE without killing. […] Fluoroquinolones are known to cause PAE after treatment of growing bacterial cultures.
(§1) For survival analysis, bacteria were cultivated as described for the dose–response dilution-regrowth assay. Assays with UPEC were conducted at the CBCS screening facility using 96-well plates with a 200 μl sample volume, and compounds were dispensed using the Echo® (Labcyte) system. P. aeruginosa and S. aureus samples were treated according to the protocol used for the dilution-regrowth experiments. Treated samples were serially diluted 10-fold in PBS, and 10 μl drops were spot-plated onto rectangular LB agar plates using either a Beckman NXP robot (for UPEC) or an Integra VIAFLO96 electronic pipette (for P. aeruginosa and S. aureus). The LB agar plates were incubated overnight at 37 °C and scanned. Colonies were counted at the spots of the lowest dilution where individual colonies could be accurately distinguished. Each colony was manually marked on a separate image layer using the GNU Image Manipulation Program, and counted using NIST’s Integrated Colony Enumerator (NICE 1.4) software. The experiments were performed in three biological replicates.

[4] = tested on: non-growing P. aeruginosa DSM1117; assay: Dose-dependent killing analysis (CFU spot-plating) of stationary-phase P. aeruginosa; assay type: cell-based, Pseudomonas aeruginosa; details: P. aeruginosa
Protocol: The cultures were grown and treated for 24 h in 1:4 CA-MHB (pH 7.4).
as §1

Compound: CC(=O)[O][Pt]([NH2])([Cl])([Cl])([NH]C1CCCCC1)[O]C(C)=O [Satraplatin]
- MIC [1]: 80 µM
- Regrowth, OD600 at 6h or 8h after dilution into drug-free medium (average) ([2]; E. coli in 1:4 CA-MHB (pH 7.4), drug concentration 0.25): 0.615
- Regrowth, OD600 at 6h or 8h after dilution into drug-free medium (average) ([2]; E. coli in 1:4 CA-MHB (pH 7.4), drug concentration 0.5): 0.612
- Regrowth, OD600 at 6h or 8h after dilution into drug-free medium (average) ([2]; E. coli in 1:4 CA-MHB (pH 7.4), drug concentration 1): 0.620
- Regrowth, OD600 at 6h or 8h after dilution into drug-free medium (average) ([2]; E. coli in 1:4 CA-MHB (pH 7.4), drug concentration 2.5): 0.601
- Regrowth, OD600 at 6h or 8h after dilution into drug-free medium (average) ([2]; E. coli in 1:4 CA-MHB (pH 7.4), drug concentration 5): 0.592
- Regrowth, OD600 at 6h or 8h after dilution into drug-free medium (average) ([2]; E. coli in 1:4 CA-MHB (pH 7.4), drug concentration 10): 0.597
- Regrowth, OD600 at 6h or 8h after dilution into drug-free medium (average) ([2]; E. coli in 1:4 CA-MHB (pH 7.4), drug concentration 30): 0.570
- Regrowth, OD600 at 6h or 8h after dilution into drug-free medium (average) ([2]; E. coli in LPM (pH 5.5), drug concentration 0.25): 0.566
- Regrowth, OD600 at 6h or 8h after dilution into drug-free medium (average) ([2]; E. coli in LPM (pH 5.5), drug concentration 0.5): 0.557
- Regrowth, OD600 at 6h or 8h after dilution into drug-free medium (average) ([2]; E. coli in LPM (pH 5.5), drug concentration 1): 0.558
- Regrowth, OD600 at 6h or 8h after dilution into drug-free medium (average) ([2]; E. coli in LPM (pH 5.5), drug concentration 2.5): 0.474
- Regrowth, OD600 at 6h or 8h after dilution into drug-free medium (average) ([2]; E. coli in LPM (pH 5.5), drug concentration 5): 0.354
- Regrowth, OD600 at 6h or 8h after dilution into drug-free medium (average) ([2]; E. coli in LPM (pH 5.5), drug concentration 10): 0.251
- Regrowth, OD600 at 6h or 8h after dilution into drug-free medium (average) ([2]; E. coli in LPM (pH 5.5), drug concentration 30): 0.087
- EC50 ([2]; E. coli, LPM pH 5.5, regrowth delay of non-growing bacteria, 24 h treatment, OD600 6 h after 2500-fold dilution, read-out: EC50): 7.62 µM
- activity against non-growing UPEC in LPM (pH 5.5) compared to 1:4 CA-MHB (pH 7.4) ([2]; regrowth delay and killing, Figs. 2 and 3): potentiated by the low pH
- killing, average Δlog10(CFU/ml) ([3]; drug concentration 0.25): 0.465 log10(CFU/ml)
- log10(CFU/ml) after treatment, replicate 1 ([3]; drug concentration 0.25): 6.778 log10(CFU/ml)
- log10(CFU/ml) after treatment, replicate 2 ([3]; drug concentration 0.25): 6.431 log10(CFU/ml)
- log10(CFU/ml) after treatment, replicate 3 ([3]; drug concentration 0.25): 7.447 log10(CFU/ml)
- killing, average Δlog10(CFU/ml) ([3]; drug concentration 0.5): 0.567 log10(CFU/ml)
- log10(CFU/ml) after treatment, replicate 1 ([3]; drug concentration 0.5): 7.041 log10(CFU/ml)
- log10(CFU/ml) after treatment, replicate 2 ([3]; drug concentration 0.5): 6.079 log10(CFU/ml)
- log10(CFU/ml) after treatment, replicate 3 ([3]; drug concentration 0.5): 7.230 log10(CFU/ml)
- killing, average Δlog10(CFU/ml) ([3]; drug concentration 1): 0.828 log10(CFU/ml)
- log10(CFU/ml) after treatment, replicate 1 ([3]; drug concentration 1): 6.778 log10(CFU/ml)
- log10(CFU/ml) after treatment, replicate 2 ([3]; drug concentration 1): 6.176 log10(CFU/ml)
- log10(CFU/ml) after treatment, replicate 3 ([3]; drug concentration 1): 6.613 log10(CFU/ml)
- killing, average Δlog10(CFU/ml) ([3]; drug concentration 2.5): 1.360 log10(CFU/ml)
- log10(CFU/ml) after treatment, replicate 1 ([3]; drug concentration 2.5): 6.954 log10(CFU/ml)
- log10(CFU/ml) after treatment, replicate 2 ([3]; drug concentration 2.5): 5.903 log10(CFU/ml)
- log10(CFU/ml) after treatment, replicate 3 ([3]; drug concentration 2.5): 5.114 log10(CFU/ml)
- killing, average Δlog10(CFU/ml) ([3]; drug concentration 5): 1.695 log10(CFU/ml)
- log10(CFU/ml) after treatment, replicate 1 ([3]; drug concentration 5): 6.146 log10(CFU/ml)
- log10(CFU/ml) after treatment, replicate 2 ([3]; drug concentration 5): 5.778 log10(CFU/ml)
- log10(CFU/ml) after treatment, replicate 3 ([3]; drug concentration 5): 5.041 log10(CFU/ml)
- killing, average Δlog10(CFU/ml) ([3]; drug concentration 10): 2.758 log10(CFU/ml)
- log10(CFU/ml) after treatment, replicate 1 ([3]; drug concentration 10): 5.778 log10(CFU/ml)
- log10(CFU/ml) after treatment, replicate 2 ([3]; drug concentration 10): =<4 log10(CFU/ml)
- log10(CFU/ml) after treatment, replicate 3 ([3]; drug concentration 10): =<4 log10(CFU/ml)
- killing, average Δlog10(CFU/ml) ([4]; drug concentration 0.1): -0.012 log10(CFU/ml)
- log10(CFU/ml) after treatment, replicate 1 ([4]; drug concentration 0.1): 8.699 log10(CFU/ml)
- log10(CFU/ml) after treatment, replicate 2 ([4]; drug concentration 0.1): 9.301 log10(CFU/ml)
- log10(CFU/ml) after treatment, replicate 3 ([4]; drug concentration 0.1): 8.699 log10(CFU/ml)
- killing, average Δlog10(CFU/ml) ([4]; drug concentration 0.5): 0.420 log10(CFU/ml)
- log10(CFU/ml) after treatment, replicate 1 ([4]; drug concentration 0.5): 8.477 log10(CFU/ml)
- log10(CFU/ml) after treatment, replicate 2 ([4]; drug concentration 0.5): 8.845 log10(CFU/ml)
- log10(CFU/ml) after treatment, replicate 3 ([4]; drug concentration 0.5): 8.079 log10(CFU/ml)
- killing, average Δlog10(CFU/ml) ([4]; drug concentration 2.5): 1.880 log10(CFU/ml)
- log10(CFU/ml) after treatment, replicate 1 ([4]; drug concentration 2.5): 7.845 log10(CFU/ml)
- log10(CFU/ml) after treatment, replicate 2 ([4]; drug concentration 2.5): 8.477 log10(CFU/ml)
- log10(CFU/ml) after treatment, replicate 3 ([4]; drug concentration 2.5): 4.699 log10(CFU/ml)
- killing, average Δlog10(CFU/ml) ([4]; drug concentration 10): 3.310 log10(CFU/ml)
- log10(CFU/ml) after treatment, replicate 1 ([4]; drug concentration 10): 5.000 log10(CFU/ml)
- log10(CFU/ml) after treatment, replicate 2 ([4]; drug concentration 10): 6.778 log10(CFU/ml)
- log10(CFU/ml) after treatment, replicate 3 ([4]; drug concentration 10): 4.954 log10(CFU/ml)
